Test results as given in PMC7010025 (EFSA Journal, 2017).
In brackets after ≈: the same amount, converted by molar mass. Entries after “also recorded” stand apart in the source; their conditions may differ. Read-outs that look alike come from different tables or passages of the source.

Experiments:
[1] = tested on: S. Typhimurium TA98, TA100, TA1535, TA1537 Escherichia coli WP2uvrA; details: ref Nucro‐Technics, 2011a, cited from earlier work; for Increase in colony counts per plate vs negative controls: positive controls
[2] = cited from earlier work; for Decarboxylation product concentration: starting batch held ~0.4% S9379
[3] = tested on: primary human lymphocytes; details: ref Nucro‐Technics, 2011b, cited from earlier work; for Cells with structural chromosomal aberrations: 20 h without S9‐mix
[4] = oral dosing in rat; ref Senomyx, 2011b; cited from earlier work
[5] = cited from earlier work; for Dry powder stability: 100°C up to 24 h
[6] = tested on: bone marrow polychromatic erythrocytes; details: ref Nucro‐Technics, 2011c, cited from earlier work
[7] = ref applicant dossier, cited from earlier work
[8] = tested on: Salmonella Typhimurium strains, TA98 and TA100; details: up to 5,000 μg/plate, ref BioReliance, 2011, cited from earlier work
[9] = 10 mg/kg oral, ref Senomyx, 2013, cited from earlier work; for Average recovered from faeces and urine: 72‐h collection
[10] = read-out: Combined mean Cmax; diet 100 mg/kg per day, day 7; ref MPI, 2011b; cited from earlier work
[11] = male and female rats, highest dose tested; ref MPI, 2011b; cited from earlier work
Margins of safety = details: child; developmental toxicity NOAEL vs chronic APET
[12] = ref Senomyx, 2011a, cited from earlier work
[13] = ref WIL Research, 2012b; cited from earlier work
[14] = human, 60‐min incubation; ref PharmOptima, 2011; cited from earlier work
[15] = rat, 60‐min incubation; ref PharmOptima, 2011; cited from earlier work
[16] = gavage, gestation days 6 through 20; ref WIL Research, 2012a; cited from earlier work
[17] = cake, 177°C 30 min, ref Senomyx, 2016
[18] = cookie, 204°C 8 min, ref Senomyx, 2016
[19] = hard candy, 149°C ~30 min, ref Senomyx, 2016
[20] = sulfate salt in sugar cookie, 177°C 10 min, 18 mg/kg
[21] = 100 mg/kg per day gavage, day 7
[22] = cake, 177°C 30 min, nominal 5 mg/kg, ref Senomyx, 2016
[23] = cookie, 204°C 8 min, nominal 5 mg/kg, ref Senomyx, 2016
[24] = hard candy, 149°C ~30 min, nominal 15 mg/kg, ref Senomyx, 2016

In the case of `Nc1ccc2cc3ccccc3cc2c1` [2‐aminoanthracene], the “Increase in colony counts per plate vs negative controls” value (from here on “Increase in colony counts per plate”) ([1]; experiments with S9‐mix) is given as no less than 3.1 fold.

In the case of `O=[N+]([O-])c1ccc2c(c1)Cc1ccccc1-2` [2‐nitrofluorene], the “Increase in colony counts per plate” value ([1]; experiments without S9‐mix) is given as no less than 3.1 fold.

For `Nc1c2ccccc2nc2ccccc12` [9‐aminoacridine], the “Increase in colony counts per plate” value ([1]; experiments without S9‐mix) is listed as no less than 3.1 fold.

In the case of `Cc1cc(N)c2c(OCC(C)(C)C(=O)NC(C)C)cccc2n1` [S9379, 4‐amino‐5‐(3‐(isopropylamino)‐2,2‐dimethyl‐3‐oxopropoxy)‐2‐methylquinoline], the “Decarboxylation product, % of [FL‐no: 16.130] nominal” value [2, 17] is given as 0.82%, the Decarboxylation product concentration [2, 17] is given as 0.041 mg/kg and the “Breakdown product S9379, % of nominal [FL‐no: 16.130] concentration” value ([2]; cake, cookie and candy prototypes) is given as less than 1%. For the same compound, the “Decarboxylation product, % of [FL‐no: 16.130] nominal” value [2, 18] was 0.86%, the Decarboxylation product concentration [2, 18] was 0.043 mg/kg and the “Decarboxylation product, % of [FL‐no: 16.130] nominal” value [2, 19] was 0.94%. The Decarboxylation product concentration [2, 19] was 0.14 mg/kg, the “Concentration of potential degradant S9379” value ([2]; sulfate salt in hard candy, nominal 24 mg/kg) was 0.04 mg/kg and the “Concentration of potential degradant S9379” value [2, 20] was 0.02 mg/kg. The “S9379, % of nominal sulfate salt concentration” value [2, 20] was 0.1%.

For `Cc1nc2cccc(OCC(C)(C)C(=O)NC(C)C)c2c(N)c1C(=O)[O-].[Na+]` [[FL‐no: 16.130] sodium salt, sodium 4‐amino‐5‐(3‐(isopropylamino)‐2,2‐dimethyl‐3‐oxopropoxy)‐2‐methylquinoline‐3‐carboxylate], the “Cells with chromosomal aberrations” value ([3]; 3 h with S9‐mix, 125 μg/mL (control 3.5%)) is listed as 5.0%, the “Cells with chromosomal aberrations” value ([3]; 3 h with S9‐mix, 250 μg/mL) is listed as 4.0% and the “Cells with chromosomal aberrations” value ([3]; 3 h without S9‐mix, 250 μg/mL) is listed as 2.0%. For the same compound, the “Cells with structural chromosomal aberrations” value ([3]; 125 μg/mL (control 1.5%)) was 2.0%, the “Cells with structural chromosomal aberrations” value ([3]; 250 μg/mL) was 1.0% and the “Cells with structural chromosomal aberrations” value ([3]; 500 μg/mL) was 3.0%. For the same compound, the “Toxicity to tester strains” value ([1]; any concentration including 5,000 μg per plate) was “No toxicity was observed” and the “Bacterial gene mutation assay result” value ([1]; plate incorporation and pre‐incubation, with and without metabolic activation, up to 5,000 μg/plate) was “Negative”.

In the case of `Cc1nc2cccc(OCC(C)(C)C(=O)NC(C)C)c2c(N)c1C(=O)O.Cc1nc2cccc(OCC(C)(C)C(=O)NC(C)C)c2c(N)c1C(=O)O.O.O.O=S(=O)(O)O` [[FL‐no: 16.130] sulfate salt, 4‐Amino‐5‐(3‐(isopropylamino)‐2,2‐dimethyl‐3‐oxopropoxy)‐2‐methylquinoline‐3‐carboxylic acid hemisulfate monohydrate salt], the “Bioequivalence to the candidate substance (systemic exposure)” value [4] is given as “equivalent”, the Recovery ([2]; sulfate salt in hard candy, 149°C ~30 min, nominal 24 mg/kg) is given as 104% and the Recovery [2, 20] is given as 100%. For the same compound, the Dry powder stability ([5]; ref Senomyx, 2016) was “stable”.

For `Cc1nc2cccc(OCC(C)(C)C(=O)NC(C)C)c2c(N)c1C(=O)O` [[FL‐no: 16.130], 4‐Amino‐5‐(3‐(isopropylamino)‐2,2‐dimethyl‐3‐oxopropoxy)‐2‐methylquinoline‐3‐carboxylic acid], the PCE/NCE ratio ([6]; any dose tested) is given as “No statistically significant decrease”, the “In vivo micronucleus test result” value ([6]; single oral gavage, 500, 1,000 and 2,000 mg/kg bw, 24, 36, 48 h, no evidence of bone marrow exposure) is given as “did not induce micronuclei; also recorded: Negative” and the Solubility in ethanol ([7]; 95% ethanol) is given as 1,600 mg/L. The Solubility ([7]; in water) was 700 µg/mL (≈ 1950 µM), the “Bacterial gene mutation assay result” value ([8]; TA98, TA100, with and without S9‐mix) was “not mutagenic; also recorded: Negative” and the Bacterial toxicity [8] was “did not result in bacterial toxicity”. For the same compound, the Recovered in faeces [9] was 75.5–99.5%, the Recovered in urine [9] was 0.1–0.6% and the “Average recovered from faeces and urine” value ([9]; female rats) was 91.4%. For the same compound, the “Average recovered from faeces and urine” value ([9]; male rats) was 86.2%, the Cmax [10] was 317 nM and the “NOAEL following 13 weeks of dietary administration” value [11] was 100 mg/kg bw per day. For the same compound, the Margin of safety (Margins of safety) was 27,000, the “Combined mean AUC0–24” value [12, 21] was 232 ng·h/mL and the “Combined mean Cmax” value [12, 21] was 154 ng/mL. For the same compound, the “Oral bioavailability (%F)” value ([12]; oral gavage, male and female rats, listed as candidate substance) was 0.53–1.19%, the Accumulation in plasma ([12]; repeated oral dosing, seven consecutive days) was “No significant accumulation” and the “NOAEL, developmental toxicity study in the rat” value [13] was 1,000 mg/kg bw per day. The Metabolism by microsomes [14] was “not metabolised”, the Mean measured concentration [2, 22] was 5.8 mg/kg and the Measured concentration [2, 22] was 5.1 to 6.1 mg/kg. For the same compound, the “Stability in model product prototypes” value ([2]; cake, cookie and candy, typical processing conditions) was “stable”, the Mean measured concentration [2, 23] was 5.4 mg/kg and the Measured concentration [2, 23] was 5.1 to 5.8 mg/kg. The Mean measured concentration [2, 24] was 13.1 mg/kg, the Measured concentration [2, 24] was 12.7 to 13.4 mg/kg and the “Recovery, % of nominal concentration” value [2, 24] was 87%. For the same compound, the Metabolism by microsomes [15] was “not metabolised”, the “Result, dose range‐finding developmental toxicity study” value [16] was 1,000 mg/kg bw per day and the “Stability in aqueous solution” value ([5]; 40°C, pH 2.8, 4.0 and 7.1, 4 weeks, ref applicant dossier) was “stable”. For the same compound, the Dry powder stability ([5]; ref Senomyx, 2016) was “stable” and the “Dry powder stability at 175°C” value ([5]; 175°C, S9379 only decomposition product, ref Senomyx, 2016) was “thermal degradation may take place”.

For `c1ccc2c(c1)cc1ccc3cccc4ccc2c1c34` [benzo[α]pyrene], the “Increase in colony counts per plate” value ([1]; experiments with S9‐mix) is listed as no less than 3.1 fold.

In the case of `O=P1(N(CCCl)CCCl)NCCCO1` (stereo not shown) [cyclophosphamide monohydrate], the “Increase in colony counts per plate” value ([1]; experiments with S9‐mix) is given as no less than 3.1 fold.

In the case of `COS(C)(=O)=O` [methyl methanesulfonate], the “Increase in colony counts per plate” value ([1]; experiments without S9‐mix) is given as no less than 3.1 fold.

For `[N-]=[N+]=[N-].[Na+]` [sodium azide], the “Increase in colony counts per plate” value ([1]; experiments without S9‐mix) is given as no less than 3.1 fold.
